From patent US20260356803A1, “Nicotinamide derivatives” (Board of Regents, The University of Texas System, priority 2024, published 2026)
“Also recorded” adds a separate entry of the source.

Columns and labels:
[1] = tested on: human MPNST cells subcutaneously xenografted into mice; conditions: cited from earlier work
[2] = tested on: mouse embryonic fibroblasts; conditions: cited from earlier work
[3] = Levels of 9 in media and cells over time; assay type: cell-based
From the text: Given that compound 21 (1) and 9 both resemble and are rescued by Nam, and the fact that the NAD salvage pathway is essential for toxicity, we considered that these two compounds may themselves be substrates in the NAD salvage pathway. In this model, we would predict that the compounds would be metabolized in cells, and that excess Nam acting as a competitive substrate would block that metabolism. To test this hypothesis, we measured the total amount of 9 in media and cells over time with or without Nam supplementation.
Prior to the experiment, cells were cultured in low-Nam DMEM for at least 1 passage (3 days) to deplete intracellular Nam. 15,000 cells were plated in a 96-well plate with 100 μL low-Nam media. At appropriate time points, 500 nM 1 or 9, or equal volume of vehicle (DMSO) were added using TECAN. 200 μL of acetonitrile with 0.1% formic acid were added to the assayed wells. […] The supernatants were filtered through 0.2 μm PVDF filters and analyzed by LC-MS/TOF.
Initial evaluation of the stability of 9 in the presence and absence of exogenous Nam was performed using LC-MS/MS analysis with a Sciex TripleQuad™ 4500 (AB SCIEX, Framingham, MA, USA) coupled to a Shimadzu (Columbia, MD) Prominence LC. The compound was detected in positive MRM mode following the transition 204.9 to 79.0. […]

[4] = Co-treatment of 9 with sublethal FK866; assay type: cell-based
Method: These observations, taken together, support the hypothesis that the activity of compound 9 depends on NAMPT and NMNAT1.
(§1) In 96-well assay plates (Corning #2903), 2,000 cells were plated per well in 100 μL of medium and allowed to adhere overnight. The next day, compounds or Nam suspended in DMSO were dispensed to the assayed wells using a D300e Digital Dispenser (Tecan). All wells were normalized to 0.5% DMSO. 72 hours after incubation at 37 °C in 5% CO2, cell viability was assayed using an ATP-based luminescent viability assay, CellTiter-Glo (Promega #G8462). CellTiter-Glo substrate was mixed 1:1 with phosphate-buffered saline (PBS) supplemented with 1% Triton X-100, and 40 μL of this mixture was added to the assay wells. After the plates were shaken on a microplate shaker for 10 minutes at room temperature, luminescence was recorded using a Synergy 2 Microplate Reader or Cytation 5 plate reader (BioTek). In Prism 9 software (GraphPad), ten-point dose response curves were plotted with baseline-correction to the vehicle control well, and IC50 values were calculated by curve fitting using asymmetric (five parameter), least squares fit.

resistant iHCT116 clones = test: Metabolism of 9 in resistant iHCT116 clones; assay type: cell-based; conditions: parental and resistant clones
From the text: The experiments described above are consistent with the model that both 1 and 9 are converted by NAMPT and NMNAT1 into their respective MN and AD metabolites. It remains unclear, however, which of these two metabolites is contributing to toxicity. To address this question, we measured 9 metabolism, 9-MN and 9-AD levels upon treatment of the resistant clones identified through forward genetics. […] Clones 5 and 7 were resistant to 9 but had normal NAMPT and NMINAT levels.
Prior to the experiment, cells were cultured in low-Nam DMEM for at least 1 passage (3 days) to deplete intracellular Nam. 15,000 cells were plated in a 96-well plate with 100 μL low-Nam media. At appropriate time points, 500 nM 1 or 9, or equal volume of vehicle (DMSO) were added using TECAN. 200 μL of acetonitrile with 0.1% formic acid were added to the assayed wells. For the 0-hour time point, compound or vehicle was added after the addition of acetonitrile and formic acid. Following incubation for 10 minutes at room temperature, samples were transferred to Eppendorf tubes and centrifuged at 20,000×g for 5 minutes. The supernatants were filtered through 0.2 μm PVDF filters and analyzed by LC-MS/TOF.

iHCT116 cells = test: iHCT116 cell viability with or without ectopic NMNAT1 expression; assay type: cell-based
From the text: Second, we screened for resistance to 9 in iHCT116 cells, a system that uses inducible mutagenesis and forward genetics to find compound-resistant mutations and thus can reveal both loss of function and gain of function alleles that suppress activity. The iHCT116 system is a barcoded cell line in which we temporally control mutagenesis by the addition of indole acetic acid (IAA) mediated degradation of the mismatch repair protein MLH1.^12 MLN4924 is a small molecule toxin that we use as a positive control to verify that IAA treatment leads to increased mutations. By degrading MLH1 and increasing the overall mutation rate, IAA treatment increases the frequency of UBA3 mutations, leading to a higher rate of MLN4924 resistance. […] Having previously established a relationship between either NMNAT1 levels or NAMPT activity and compound resistance, we analyzed the levels of both enzymes in multiple resistant clones that harbored unique barcode sequences. […] To test whether reduced NMNAT1 levels in these clones contributed to resistance, we ectopically expressed NMNAT1 in either the parental cells or a representative resistant clone with low NMNAT1 expression.
as §1

SMILES | toxic effects in mice ([1]; mice bearing MPNST xenografts) | growth of xenograft tumors ([1]; mice, listed as compound 21) | toxicity to mouse embryonic fibroblasts [2] | decrease in levels of 9 with Nam ([3]; 100 μM Nam, 24 hours) | half-life at 0.5 µM ([3]; cells in nam-free dmem, 10% FBS Nam-free DMEM) [h] | increase in IC50 of 9 with FK866 ([4]; addition of 278 pM FK866) [fold] | increase in IC50 of 9 with FK866 ([4]; addition of 833 pM FK866) [fold] | metabolism of 9 over time (resistant iHCT116 clones) | decrease in IC50 on ectopic NMNAT1 expression (iHCT116 cells; parental iHCT116) [fold] | IC50 (iHCT116 cells; parental iHCT116, NMNAT1-expression) [nM] | IC50 (iHCT116 cells; parental iHCT116, mock-infected) [nM] | IC50 (iHCT116 cells; representative resistant clone with low NMNAT1 expression) [nM] | decrease in IC50 on ectopic NMNAT1 expression (iHCT116 cells; resistant clone) [fold] | IC50 (iHCT116 cells; resistant clone with ectopic NMNAT1 expression) [nM]
O=C(Nc1cccnc1)c1cccs1 [Compound 1, N-(pyridin-3-yl)thiophene-2-carboxamide] | without obvious toxic effects | inhibited the growth; also recorded: reduces the growth of xenograft tumors | nontoxic |  |  |  |  |  |  |  |  |  |  | 
O=C(Nc1cccs1)c1cccnc1 [Compound 9, N-(Thiophen-2-yl)nicotinamide] |  |  |  | no appreciable decrease | ~3.8 | 2.9 | 15.4 | metabolized over time | 1.85 | 26.9 | 49.7 | 574 | 9.58 | 59.9
